The results in this text go back to BindingDB's records for doi:10.1016/j.chembiol.2011.05.010 (Harvard Medical School, 2011).

Common to all, as to assay: Biochemical Assay
The target in test [1] is Homeodomain-interacting protein kinase 2 (Homo sapiens, UniProt Q9H2X6). The method, then: (§1) In vitro biochemical assays were performed in parallel to determine the most potent tool compound.
The target of another test is T1, Aurora kinase A (Homo sapiens, UniProt O14965).
T1 sequence (O14965 whole entry): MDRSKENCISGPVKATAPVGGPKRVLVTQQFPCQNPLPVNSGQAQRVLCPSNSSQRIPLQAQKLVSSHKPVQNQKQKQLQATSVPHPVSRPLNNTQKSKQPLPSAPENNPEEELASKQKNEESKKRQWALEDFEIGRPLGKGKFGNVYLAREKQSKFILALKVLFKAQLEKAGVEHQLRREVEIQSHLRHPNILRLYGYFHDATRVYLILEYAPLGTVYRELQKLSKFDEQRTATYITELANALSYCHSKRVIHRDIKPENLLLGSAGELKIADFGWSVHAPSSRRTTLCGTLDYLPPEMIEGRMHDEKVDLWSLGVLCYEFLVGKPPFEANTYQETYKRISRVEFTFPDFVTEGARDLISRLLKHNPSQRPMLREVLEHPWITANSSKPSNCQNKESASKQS
As to the method:
as §1

For another test, the target named is Aurora kinase B (Homo sapiens, UniProt Q96GD4). As to the method:
as §1

The target in another test is T2, Aurora kinase C (Homo sapiens, UniProt Q9UQB9).
T2 sequence (Q9UQB9 whole entry): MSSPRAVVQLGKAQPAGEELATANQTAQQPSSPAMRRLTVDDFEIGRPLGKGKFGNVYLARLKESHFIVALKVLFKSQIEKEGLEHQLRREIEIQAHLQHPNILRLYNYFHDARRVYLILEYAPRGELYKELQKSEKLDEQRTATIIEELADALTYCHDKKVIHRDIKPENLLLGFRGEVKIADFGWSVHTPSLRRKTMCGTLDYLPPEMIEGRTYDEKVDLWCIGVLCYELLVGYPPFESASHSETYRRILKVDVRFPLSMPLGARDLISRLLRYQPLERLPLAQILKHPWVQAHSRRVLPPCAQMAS
As to the method:
as §1

Homeodomain-interacting protein kinase 2, sequence (Q9H2X6 whole entry): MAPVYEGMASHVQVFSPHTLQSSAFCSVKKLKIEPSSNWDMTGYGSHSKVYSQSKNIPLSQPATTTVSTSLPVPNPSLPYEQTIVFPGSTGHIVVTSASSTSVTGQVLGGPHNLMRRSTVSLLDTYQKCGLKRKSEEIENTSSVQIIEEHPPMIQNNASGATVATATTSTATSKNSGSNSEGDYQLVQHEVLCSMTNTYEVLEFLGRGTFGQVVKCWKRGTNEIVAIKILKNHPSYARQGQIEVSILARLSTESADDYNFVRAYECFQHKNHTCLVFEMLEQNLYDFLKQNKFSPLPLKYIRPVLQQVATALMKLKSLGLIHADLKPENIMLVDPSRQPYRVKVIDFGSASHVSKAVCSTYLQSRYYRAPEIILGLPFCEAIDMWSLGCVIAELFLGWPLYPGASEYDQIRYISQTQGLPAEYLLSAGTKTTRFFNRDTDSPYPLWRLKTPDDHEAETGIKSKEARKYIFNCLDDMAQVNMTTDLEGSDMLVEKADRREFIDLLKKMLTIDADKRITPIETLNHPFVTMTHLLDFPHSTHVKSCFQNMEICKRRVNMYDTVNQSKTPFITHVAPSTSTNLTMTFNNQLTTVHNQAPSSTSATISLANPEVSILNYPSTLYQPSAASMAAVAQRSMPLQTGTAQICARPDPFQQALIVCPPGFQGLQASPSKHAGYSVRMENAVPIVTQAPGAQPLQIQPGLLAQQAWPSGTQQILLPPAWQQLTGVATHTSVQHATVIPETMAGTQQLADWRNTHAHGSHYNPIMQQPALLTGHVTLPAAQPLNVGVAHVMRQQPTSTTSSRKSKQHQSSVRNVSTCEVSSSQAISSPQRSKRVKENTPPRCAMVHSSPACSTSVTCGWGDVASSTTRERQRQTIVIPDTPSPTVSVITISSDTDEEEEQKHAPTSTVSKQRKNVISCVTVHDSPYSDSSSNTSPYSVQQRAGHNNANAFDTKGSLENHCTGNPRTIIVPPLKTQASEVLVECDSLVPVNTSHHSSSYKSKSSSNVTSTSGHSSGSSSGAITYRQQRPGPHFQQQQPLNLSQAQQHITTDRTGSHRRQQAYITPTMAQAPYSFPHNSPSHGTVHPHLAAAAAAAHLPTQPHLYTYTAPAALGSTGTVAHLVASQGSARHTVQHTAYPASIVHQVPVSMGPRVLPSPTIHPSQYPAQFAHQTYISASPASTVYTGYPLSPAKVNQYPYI
Aurora kinase B, sequence (Q96GD4 whole entry): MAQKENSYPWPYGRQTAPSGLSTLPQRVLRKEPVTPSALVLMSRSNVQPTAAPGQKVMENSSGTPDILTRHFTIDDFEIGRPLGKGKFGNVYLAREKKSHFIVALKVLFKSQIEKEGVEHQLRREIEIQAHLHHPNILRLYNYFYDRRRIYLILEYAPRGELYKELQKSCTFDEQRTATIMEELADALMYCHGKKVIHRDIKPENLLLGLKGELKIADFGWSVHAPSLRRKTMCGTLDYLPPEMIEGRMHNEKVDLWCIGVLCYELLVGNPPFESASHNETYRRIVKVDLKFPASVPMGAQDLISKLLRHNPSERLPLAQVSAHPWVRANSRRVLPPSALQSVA

What is called IC50 is the concentration at which inhibition is half-maximal. A low value points to greater potency in that assay. As a reminder, the Kd is the constant that tells how readily two partners part at equilibrium. `N=C1NC(=O)/C(=C\c2c[nH]c(=O)c(-c3ccc(N4CCNCC4)nc3)c2)S1` [Furan thiazolidinediones, A64]: in test [1], the IC50 worked out at 74 nM and the affinity, expressed as Kd, was 9.5 nM.
For `CN1C(=O)c2ccccc2N(C)c2nc(Nc3ccc(N4CCC(O)CC4)cc3)ncc21` [Benzo[e]pyrimido[5,4-b][1,4]diazepin-6(11H)-one, 1], the IC50 on Aurora kinase A came to 8 nM; against Aurora kinase B, 24 nM; at Aurora kinase C it was 41 nM.
